Consider 2 compounds from patent US7129073B2, “Regulation of neuronal function through metabotropic glutamate receptor signaling pathways” (The Rockefeller University, priority 2001, dated 2006).

pIC50: −log10 of the molar value.

The subject of experiment [1] is MM2-CK1ε. Nature of the experiment: phosphopeptide mapping of MM2-CK1ε in N2a cells. The format is cell-based. To be noted: DHPG 2 min. As for the experimental part: Twenty-four hours after transfecting N2a cells with CK1ε expression plasmids, cells were incubated in 200 μCi/ml (NEN) ^32P-inorganic phosphate and phosphate-free serum-free DMEM for 2 h. […] Cells were treated with DHPG for various periods of time as indicated, harvested by lysis in RIPA buffer and clarified by centrifugation at 14,000×g for 10 min. Soluble extracts containing HA- or Myc-tagged proteins were immunoprecipitated with 12CA5 or 9E10 monoclonal antibody and protein A-agarose. The immunoprecipitates were eluted from the protein A-agarose and separated by SDS-PAGE on 10% gel. Proteins were stained briefly with Coomassie Brilliant Blue, the gels were dried, and the labeled proteins were visualized by autoradiography.
Radiolabeled protein bands were excised, rehydrated, de-stained and dried in a speedvac. The gel slices were minced and rehydrated in 75 μg/ml TPCK/trypsin in 50 mM NH4CO3H (1 ml final volume) for 24 h at 37° C. The supernatant was removed from the gel slices and then lyophilized to dryness. Recovery of tryptic phosphopeptides was determined by Cerenkov counting. The two-dimensional peptide mapping method was used to separate phosphopeptides (23). Lyophilized tryptic peptides were suspended in 10 μl of electrophoresis buffer (10% acetic acid and 1% pyridine, pH 3.5) and spotted onto thin-layer cellulose plates (20×20 cm, Analtech). […]

For experiment [2], the system named is HA-CK1ε. Nature of the experiment: 32P metabolic labeling and two-dimensional phosphopeptide mapping of HA-CK1ε in N2a cells. To be noted: DHPG 2 or 4 min; returned to 0 min level at ten min. The format is cell-based.
In experiment [3] the test system is MM2-CK1ε. Nature of the experiment: kinase activity of Myc-MM2-CK1ε mutant immunoprecipitated from transfected N2a cells. To be noted: DHPG 100 μM 2 min, in the absence or presence of cyclosporin A. The format is cell-based. As for the experimental part:
(§1) Neuroblastoma N2a cells were cultured to 50–60% confluence in DMEM containing 5% fetal bovine serum. Four μg of the expression plasmid for HA-CK1ε or myc-MM2-CK1ε was transfected into N2a cells in 100 mm dishes using FuGENE6™. Twenty-four hours after transfection, cells were incubated at room temperature in phosphate-buffered Kreb's-Henseleit solution (Sigma) for 10 min and then with or without inhibitors for 30 min before treating with (S)-3,5-DHPG, for 2 min. Cells were then lysed in 1 ml of radio-immunoprecipitation (RIPA) buffer containing 1% NP-40, 150 mM NaCl, 0.1% SDS, 50 mM Tris, pH 8.0, 5 mM Na3VO4, 20 mM NaF, 20 mM β-glycerol-phosphate and protease inhibitors. Lysates were centrifuged at 10,000 g, and supernatants were used for immunoprecipitation and kinase assay.
For immunoprecipitation of CK1ε from N2a cells, lysates (1 mg of total protein) were precleared with 5 μl of mouse IgG (ICN) and 50 μl of protein A agarose for 30 min. Five μl (approximately 2 μg) of anti-HA or anti-myc antibody was added and samples were incubated for 1 h at 4° C. Five μl of anti-mouse rabbit IgG and 50 μl of protein A agarose were then added for 45 min. […]
CK1 assays were performed in a 30 μl assay volume with 2 μg of purified DARPP-32, 500 μM ATP and 5 μCi γ-^32P-ATP. […] Results were quantified using a Molecular Dynamics PHOSPHORIMAGER™. […]

Experiment [4] deals with HA-tagged CK1ε. Kind of experiment: kinase activity of HA-CK1ε immunoprecipitated from transfected N2a cells, DARPP-32 as substrate. The format is cell-based. The procedure: Neuroblastoma N2a cells were cultured in DMEM containing 5% fetal bovine serum (FBS) to 50–60% confluency. Four micrograms of the expression plasmid for HA-CK1ε were transfected into N2a cells in 100 mm dishes using FuGENE™ 6. Twenty-four hours after transfection, cells were incubated in phosphate-buffered Krebs-Henseleit solution (Sigma) for 10 minutes at room temperature. Cells were then incubated with or without CKI inhibitor for 30 minutes before treating with the group I mGluR agonist (S)-3,5-DHPG (100 μM) for 2 minutes. Cells were then lysed in one ml of lysis buffer containing 1% Nonidet P-40 (NP-40), 150 mM NaCl, 0.1% SDS, 50 mM Tris (pH 8.0), 5 mM Na3VO4, 20 mM NaF, 20 mM β-glycerol-phosphate and protease inhibitors. Lysates were centrifuged at 10,000 g and supernatants were used for immunoprecipitation and kinase assay.
For immunoprecipitation of CKI from N2a cells, lysates (1 mg of total protein) were pre-cleared with 5 μl of mouse IgG and 50 μl of protein A agarose for 30 minutes. Five μl of anti-HA antibody were added and samples were incubated for 1 hour at 4° C. Five μl of anti-mouse rabbit IgG and 50 μl of protein A agarose were then added for 45 minutes. Immuno-complexes were washed three times in lysis buffer, two times in kinase buffer (30 mM Hepes (pH 7.5), 7 mM MgCl2, 0.5 mM DTT). CKI assays were performed in a 30 μl assay volume with 2 μg of purified DARPP-32, 500 μM ATP and 5 μCi γ-^32P-ATP. Samples were incubated at 30° C. for 20 minutes, reactions were stopped by addition of SDS-sample buffer, and samples were boiled for 5 minutes. Samples were separated by SDS-PAGE (12% polyacrylamide). SDS-PAGE gels were dried and exposed to Kodak film for autoradiography. Bands were quantified by analysis using a Molecular Dynamics PhosphorImager.
as §1
For immunoprecipitation of CK1ε from N2a cells, lysates (1 mg of total protein) were precleared with 5 μl of mouse IgG (ICN) and 50 μl of protein A agarose for 30 min. Five μl (approximately 2 μg) of anti-HA or anti-myc antibody was added and samples were incubated for 1 h at 4° C. Five μl of anti-mouse rabbit IgG and 50 μl of protein A agarose were then added for 45 min. Immuno-complexes were washed 3 times in lysis buffer and 2 times in kinase buffer (30 mM Hepes, pH 7.5, 7 mM MgCl2, 0.5 mM DTT).
CK1 assays were performed in a 30 μl assay volume with 2 μg of purified DARPP-32, 500 μM ATP and 5 μCi γ-^32P-ATP. Reactions were started by addition of the ATP. Samples were incubated at 30° C. for 10 min and reactions were stopped by addition of SDS-sample buffer and boiled for 5 min. Samples were separated by SDS-PAGE (12% polyacrylamide). SDS-PAGE gels were dried and exposed to Kodak film for autoradiography. Results were quantified using a Molecular Dynamics PHOSPHORIMAGER™. Immunoprecipitation and assay of Cdk5 were performed as disclosed (20).

Experiment [5] concerns CKI. Kind of experiment: in vitro inhibitory potency of CKI-7 towards CKI. The format is biochemical. As for the experimental part: (§2) CKI may also regulate Cdk5 kinase activity in response to mGluR receptor activation, or vice versa. To examine these possibilities, experiments were performed with a CKI inhibitor, CKI-7. The crystal structure of the catalytic domain of casein kinase I complexed with CKI-7 provided evidence that CKI-7 achieves its selectivity for CKI by hydrophobic contacts and hydrogen bonding with the isoquinoline ring (Xu, R. M. et al. 1996. Proc. Natl. Acad. Sci. USA 93:6308–6313). In in vitro studies, the inhibitory potency (IC50 values) for CKI-7 towards CKI and Cdk5/p25 was determined.

The target in experiment [6] is Cdk5/p25 (Homo sapiens, UniProt Q00535). Kind of experiment: in vitro inhibitory potency of CKI-7 towards Cdk5/p25. The format is biochemical. As for the experimental part: as §2
Cdk5/p25, sequence (Q00535 whole entry, species assumed): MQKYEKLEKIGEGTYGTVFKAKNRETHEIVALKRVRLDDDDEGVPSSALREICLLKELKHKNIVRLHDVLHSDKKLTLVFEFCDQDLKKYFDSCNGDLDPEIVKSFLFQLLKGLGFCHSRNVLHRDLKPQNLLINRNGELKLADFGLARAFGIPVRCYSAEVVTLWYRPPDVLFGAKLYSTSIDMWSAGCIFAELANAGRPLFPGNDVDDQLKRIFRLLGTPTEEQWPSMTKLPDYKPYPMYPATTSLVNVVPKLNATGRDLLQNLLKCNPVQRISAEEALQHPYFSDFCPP
Cdk5/p25, sequence (Q15078 99-307 partner limits assumed, species assumed): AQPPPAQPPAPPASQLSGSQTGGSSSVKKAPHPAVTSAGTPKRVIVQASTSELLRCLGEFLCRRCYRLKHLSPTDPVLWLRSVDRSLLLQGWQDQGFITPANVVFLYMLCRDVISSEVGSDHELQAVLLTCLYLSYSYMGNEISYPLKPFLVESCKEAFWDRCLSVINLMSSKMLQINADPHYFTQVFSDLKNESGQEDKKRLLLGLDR

With `N[C@H](C(=O)O)c1cc(O)cc(O)c1` [DHPG, (S)-3,5-Dihydroxyphenylglycine], the “effect on phosphorylation of MM2-CK1ε” value in experiment [1] is recorded as “no effect”. The “effect on phosphorylation state of CK1ε (subset of acidic phosphopeptides)” value in experiment [2] is “rapid and transient dephosphorylation”. For the same compound, in experiment [3], the “effect on MM2-CK1ε activity” value is given as “no effect”. In addition, in experiment [4] (DHPG 100 μM for 2 min), the “effect on CK1ε activity” value is “increase”. Further, the “increase in CKI activity compared to the basal level” value in experiment [4] (DHPG 100 μM for 2 minutes) is “approximately 2 fold”.

In the case of `NCCNS(=O)(=O)c1ccc(Cl)c2ccncc12` [CKI-7], the pIC50 is 4.82 in experiment [5] and 3.70 in experiment [6]. The “effect of pre-incubation on the ability of DHPG to increase CK1ε activity” value in experiment [4] (30 min before DHPG 100 μM 2 min, CKI-7 100 μM, L-AP3 100 μM, U73122 10 μM, BAPTA/AM 20 μM, cyclosporin A 1 μM) is “blocked”.

What is called pIC50 is −log10 of the IC50, conventionally taken in molar units. A low value points to a high IC50.
